From patent publication US8598339B2, “Withanolide isolated from Physalis longifolia and analogs and methods of use thereof” (University of Kansas, priority 2011, dated 2013) come the findings set out here.

Some results are limits rather than exact numbers.

The test system of data set [1] is human melanoma SKMEL28 cells. Put plainly: MTS cell viability assay, SKMEL28. Type of data set: cell-based. The note with it: Homo sapiens, SK-MEL-28, Table 5. The procedure: (§1) Human carcinoid cells, NCI-H727 (ATCC, Manassas, Va.), were cultured under standard conditions. Squamous cell carcinoma of head and neck cells, MDA1986 (Myers, et al. (2002) Clin. Cancer Res. 8:293) and JMAR (Swan, et al. (2003) Oral Oncol. 39:648-55); and melanoma cells lines B16F10 (ATCC, Manassas, Va.) and SKMEL28 (CLS, Eppelheim, Germany) were cultured in DMEM medium supplemented with 10% heat-inactivated fetal bovine serum (Sigma-Aldrich, St. Louis, Mo.), 1×MEM-essential amino acid, 1×MEM vitamin, and penicillin/streptomycin (Sigma-Aldrich, St. Louis, Mo.) in a humid environment of 5% CO2 at 37° C. Activity of withanolides against DRO81-1 and TT medullary thyroid cancer cells was also determined.
(§2) Cells were cultured in 96 well plates at a concentration of 1-2×10^4 cells/mL. Cell viability was assessed with the nonradioactive cell proliferation MTS assay using Cell Titer 96AQUEOUS One Solution Reagent (PROMEGA, Madison, Wis.), according to the manufacturer's instruction. After a 72-hour treatment, 20 μL of Cell Titer 96AQUEOUS One Solution Reagent were added to each well and incubated for 3 hours at 37° C. 5% CO2, and formazan absorbance was measured at 490 nm.
A cell viability MTS assay was carried out to determine the anti-cancer effect of the withanolides on human melanoma SKMEL28 cells. Cells were treated for 72 hours and cell viability was determined according to the manufacturer's instruction.
In general terms: Tetrazolium assays rely on reduction of a dye to a coloured formazan, in cell work by metabolically active cells.

For data set [2], the system named is MRC-5. Put plainly: MTS cell viability assay, MRC-5. Type of data set: cell-based. The conditions noted are these: Homo sapiens, MRC5, Table 5.
Data set [3] concerns squamous cell carcinoma of head and neck cells JMAR. Put plainly: MTS cell viability assay, JMAR. Type of data set: cell-based. The conditions noted are these: Table 5. The procedure:
as §1, §2

For data set [4], the system named is HS766T. Put plainly: Pancreatic cancer cell viability, HS766T. Type of data set: cell-based. The conditions noted are these: read-out: IC50. The method, then: (§3) The activity of the withanolides of this invention were tested in pancreatic cancer cells. […] Moreover, IC50 values were determined for these compounds (Table 14).
For data set [5], the system named is squamous cell carcinoma of head and neck cells MDA1986. Description: MTS cell viability assay, MDA1986. Type of data set: cell-based. The note with it: Table 5. The procedure:
as §1, §2

Data set [6] concerns melanoma cells B16F10. Put plainly: MTS cell viability assay, B16F10. Type of data set: cell-based. The note with it: Mus musculus, B16-F10, Table 5. The method, then:
as §1, §2

For data set [7], the system named is Mia PaCa-2. Description: Pancreatic cancer cell viability, Mia PaCa-2. Type of data set: cell-based. The note with it: Homo sapiens, MIA PaCa2, read-out: IC50. The method, then: as §3
Data set [8] relates to RET, mTOR, 4E-BP1, P70S6 kinase, akt, pERK in medullary thyroid cancer cells. Put plainly: Mechanistic pathway protein levels in medullary thyroid cancer cells. The note with it: for pERK / total and phosphorylated protein levels of RET, mTOR, 4E-BP1, P70S6 kinase: 24 hours, 0.25, 0.5, 1 or 3 μM. Type of data set: cell-based. The procedure: Additional analysis of X005, X032 and X033 was carried out in medullary thyroid cancer cells. […] Therefore, this analysis indicates the importance of this double bond in the A-ring to anti-cancer activity.

The subject of data set [9] is Ames test strain TA100. Put plainly: Ames test, TA100.
Data set [10] relates to Ames test strain TA98. Description: Ames test, TA98. Background: The Ames test uses bacterial strains that need an amino acid and regain growth without it when mutated back.
For data set [11], the system named is Ames test strain TA1535. Description: Ames test, TA1535.
Data set [12] deals with heat shock factor (HSF) / HSE-luciferase in Hs766T cells. Description: HSE-luciferase reporter, Hs766T. Type of data set: cell-based. Further details: dose or concentration left out as unconfirmed. The conditions noted are these: heat shock 42° C. 30 minutes; recovery 8 hours. The procedure: To monitor the activation of heat shock factor (HSF) and heat shock-mediated signal transduction pathways, Hs766T cells were transfected with a HSE-luciferase construct, then treated with 3 mM of the selected withanolides for 8 hours. The cells were heat shocked at 42° C. for 30 minutes and allowed to recover at 37° C. for 8 hours. Cells were lysed and luciferase activity was measured on a plate reader.
In general terms: In a reporter assay the amount or activity of a reporter protein is the signal.

One may read the IC50 as the point on the concentration scale where inhibition reaches its midpoint. On to `CC1=C(CO)C(=O)O[C@@H]([C@@H](C)[C@H]2CC[C@H]3[C@@H]4C[C@H]5O[C@]56[C@@H](O)[C@@H](OS(=O)(=O)O)CC(=O)[C@]6(CO)[C@H]4CC[C@]23C)C1` [Compound X017], for which the IC50 worked out at 4800 nM in data set [1]; 3330 nM in [2]; 2250 nM in data set [3]; 1800 nM in data set [4]; 2020 nM in data set [5]; 1330 nM in data set [6]. For the same compound, the IC50 in data set [7] amounted to 1400 nM.

As for `CO[C@H]1CC(=O)[C@]2(CO)[C@H]3CC[C@]4(C)[C@@H]([C@H](C)[C@H]5CC(C)=C(CO)C(=O)O5)CC[C@H]4[C@@H]3C[C@H]3O[C@]32[C@H]1O` [Compound X005], the half-inhibitory concentration (IC50) in [1] is 9270 nM; in data set [2], 6500 nM; in data set [3], 4690 nM; in data set [5], more than 25000 nM; in data set [6], 3210 nM. In addition, the “RET, mTOR, 4E-BP1, p70S6 kinase and akt levels” value in data set [8] (medullary thyroid cancer cells) was “dose-dependent increase”.

On to `CN(N=O)C(=O)N[C@H]1C(O)O[C@H](CO)[C@@H](O)[C@@H]1O` (mixture of isomers) [Streptoxotocin, reference compound], for which the “Positive Significance (− to +++)” value in [9] (2.5E−06 M, TA100 +S9) is reported as “+++ (Very strong positive, if p < 0.001, denoted as “+++”.)”; in [9] (2.5E−06 M, TA100 −S9), “+++ (Very strong positive, if p < 0.001, denoted as “+++”.)”; in data set [10] (2.5E−06 M, TA98 +S9) it was “−”; in data set [10] (2.5E−06 M, TA98 −S9) it was “−”; in data set [11] (2.5E−06 M, TA1535 +S9) it was “++ (Strong positive, if p < 0.01, denoted as “++”.)”; in data set [11] (2.5E−06 M, TA1535 −S9) it was “+++ (Very strong positive, if p < 0.001, denoted as “+++”.)”.

Regarding `CC1=C(C)C(=O)O[C@@H]([C@@H](C)[C@H]2CC[C@H]3[C@@H]4C[C@H]5O[C@]56[C@@H](O)C=CC(=O)[C@]6(CO)[C@H]4CC[C@]23C)C1` (stereo in doubt) [Compound X030], the “heat shock-induced increase in luciferase activity” value in data set [12] is “substantially reduced”. For the same compound, the IC50 in [4] and in data set [7] was 800 nM each time.

Regarding `CC(=O)O[C@H]1C=CC(=O)[C@]2(CO)[C@H]3CC[C@]4(C)[C@@H]([C@H](C)[C@H]5CC(C)=C(C)C(=O)O5)CC[C@H]4[C@@H]3C[C@H]3O[C@]132` [Compound X032], the IC50 in data set [1] worked out at 640 nM; in data set [2], 160 nM; in data set [3] it was 120 nM; in data set [5] it was 490 nM; in data set [6], 190 nM. For the same compound, the pERK result in data set [8] is recorded as “increased at higher concentrations”. Besides, in data set [8], the “total and phosphorylated protein levels of RET, mTOR, 4E-BP1, P70S6 kinase” value is “dose-dependent down-regulation”. Moreover, in [8] (medullary thyroid cancer cells), the “potency in pathway analysis relative to X001” value is “more potent than X001”.

In the case of `Nc1cccc2cc3ccccc3cc12` [Aminoanthracene, reference compound], the “Positive Significance (− to +++)” value in data set [9] (1.0E−05 M, TA100 +S9) is given as “+++ (Very strong positive, if p < 0.001, denoted as “+++”.)”; in [9] (1.0E−05 M, TA100 −S9) it was “−”; in data set [10] (1.0E−05 M, TA98 +S9) it was “+++ (Very strong positive, if p < 0.001, denoted as “+++”.)”; in data set [10] (1.0E−05 M, TA98 −S9) it was “−”; in [11] (1.0E−05 M, TA1535 +S9), “+++ (Very strong positive, if p < 0.001, denoted as “+++”.)”; in [11] (1.0E−05 M, TA1535 −S9), “−”.

`CC1=C(CO)C(=O)O[C@@H]([C@@H](C)[C@H]2CC[C@H]3[C@@H]4C[C@H]5O[C@]56[C@@H](O)C=CC(=O)[C@]6(C)[C@H]4[C@@H](O)C[C@]23C)C1` [Compound X004]: the IC50 in [1] turned out to be 2990 nM; in [2], 3600 nM; in data set [3], 770 nM; in data set [4] it was 1600 nM; in data set [5], 2640 nM; in data set [6], 490 nM. For the same compound, in data set [7], the IC50 turned out to be 1300 nM.

With `O=c1c(O)c(-c2ccc(O)c(O)c2)oc2cc(O)cc(O)c12` [Quercetin, reference compound], the “Positive Significance (− to +++)” value in data set [9] (3.0E−05 M, TA100 +S9) is listed as “−”; in data set [9] (3.0E−05 M, TA100 −S9), “−”; in data set [10] (3.0E−05 M, TA98 +S9), “+++ (Very strong positive, if p < 0.001, denoted as “+++”.)”; in data set [10] (3.0E−05 M, TA98 −S9) it was “+++ (Very strong positive, if p < 0.001, denoted as “+++”.)”; in data set [11] (3.0E−05 M, TA1535 +S9), “−”; in [11] (3.0E−05 M, TA1535 −S9), “−”.

As to `CC(=O)OC[C@]12C(=O)C=C[C@H](OC(C)=O)[C@]13O[C@@H]3C[C@H]1[C@@H]3CC[C@H]([C@H](C)[C@H]4CC(C)=C(C)C(=O)O4)[C@@]3(C)CC[C@@H]12` [Compound X033], the 50% inhibitory concentration (IC50) in data set [1] came to 270 nM; in data set [2], 510 nM; in data set [3], 240 nM; in [5], 110 nM; in [6], 130 nM. The pERK result in data set [8] is given as “increased at higher concentrations”. The “total and phosphorylated protein levels of RET, mTOR, 4E-BP1, P70S6 kinase” value in data set [8] is “dose-dependent down-regulation”. The “potency in pathway analysis relative to X001” value in data set [8] (medullary thyroid cancer cells) was “more potent than X001”.

In the case of `CC1=C(COC2OC(CO)C(O)C(O)C2O)C[C@H]([C@@H](C)[C@H]2CC[C@H]3[C@@H]4CCC5=C(C(=O)C[C@H](O)C5)[C@H]4CC[C@]23C)OC1=O` (some centres unmarked) [Compound X026B], the IC50 in [1] is more than 25000 nM; in data set [2] it was 13500 nM; in data set [3], more than 25000 nM; in [5] it was more than 25000 nM; in data set [6], 11000 nM.
